From US4644055A, “Method for preparing specific inhibitors of virus-specified proteases” (priority 1984, dated 1987)
Read-outs that look alike come from different tables or passages of the source. Starred links: 1 amine or outer side, 2 acyl side, 3 side chain; linkers in the order of their positions; H or OH if unused. *: point of attachment. code Z = not defined here; MeOSuc = COC(=O)CCC(=O)*; CH2 = C([*:1])[*:2]; CH2Cl = ClC*

Columns and labels:
[1] = tested on: poliovirus; settings: cited from earlier work
[2] = tested on: echovirus-12; settings: Korant 1972; cited from earlier work
[3] = molecular target: chymotrypsin (Bos taurus, UniProt P00766); settings: inhibitor concentration 600 μg/mL; Ito et al. 1972; cited from earlier work
[4] = tested on: human poliomyelitisvirus type 2; type: cell-based, poliovirus type 2; parameters: key to Comparative Experiments Involving Other Peptide Halomethyl Ketones: Activity: -: no activity; +/-: low activity; +: active at 100 μg/mL; ++: active at 50 μg/mL; +++: active at 10 μg/mL; ++++: active at <5 μg/mL
[5] = tested on: human rhinovirus type 1A; type: cell-based
[6] = tested on: human rhinovirus type 1A; test: Plaque inhibition assay, rhinovirus; type: cell-based
[7] = tested on: poliovirus type 2; type: cell-based
[8] = tested on: human HeLa-O cells

In the case of `Cc1ccc(S(=O)(=O)NC(CCCCN)C(=O)CCl)cc1` (stereo not drawn) [TLCK, tolylsulfonyllysyl chloromethyl ketone], the “inhibition of poliovirus protein processing / protease cleavage of poliovirus-specific polypeptides” value [1] is listed as “inhibition” and the “inhibition of echovirus-12 protein processing” value [2] is listed as “inhibition”.
In the case of `Cc1ccc(S(=O)(=O)N[C@@H](Cc2ccccc2)C(=O)CCl)cc1` [TPCK, tolylsulfonylphenylalanyl chloromethyl ketone], the “inhibition of poliovirus protein processing / protease cleavage of poliovirus-specific polypeptides” value [1] is listed as “inhibition” and the “inhibition of echovirus-12 protein processing” value [2] is listed as “inhibition”.
For Ac-Leu-Leu-PheCH3, the inhibition of chymotrypsin [3] is given as “no inhibition was observed”.
With “MeOSuc-Phe-Gly-Leu-LeuCH3 (MeOSuc-FGLL-CH2; SMILES COC(=O)CCC(=O)N[C@@H](Cc1ccccc1)C(=O)NCC(=O)N[C@@H](CC(C)C)C(=O)N[C@@H](CC(C)C)C(C)=O)” the “activity in the viral cleavage assay” value ([4]; 50 μg/mL) was “active”.
With “Z-- Phe--Gly--Pro--LeuCH2 Cl ({code Z}-FGPL-CH2Cl; reading uncertain; also: printed as Z-- Phe--Gly--Pro--LeuCH2 Cl)” the “Protease-Inhibiting Activity of Selected Peptide Halomethyl Ketones: Activity” value [4] was “++ (key: -: no activity; +/-: low activity; +: active at 100 μg/mL; ++: active at 50 μg/mL; +++: active at 10 μg/mL; ++++: active at <5 μg/mL)”.
With “Z--Ala--Gly--Ala--LeuCH2 Cl ({code Z}-AGAL-CH2Cl; reading uncertain; also: printed as Z--Ala--Gly--Ala--LeuCH2 Cl)” the “Comparative Experiments Involving Other Peptide Halomethyl Ketones: Activity” value [4] was “+/-”.
With “Z--Gln--Gly--Ala--LeuCH2 Cl ({code Z}-QGAL-CH2Cl; reading uncertain; also: printed as Z--Gln--Gly--Ala--LeuCH2 Cl)” the “Comparative Experiments Involving Other Peptide Halomethyl Ketones: Activity” value [4] was “+ (key: -: no activity; +/-: low activity; +: active at 100 μg/mL; ++: active at 50 μg/mL; +++: active at 10 μg/mL; ++++: active at <5 μg/mL)”.
For “Z--Leu--Gly--Ala--LeuCH2 Cl ({code Z}-LGAL-CH2Cl; reading uncertain; also: printed as Z--Leu--Gly--Ala--LeuCH2 Cl)”, the “Protease-Inhibiting Activity of Selected Peptide Halomethyl Ketones: Activity” value [4] was “+++ (key: -: no activity; +/-: low activity; +: active at 100 μg/mL; ++: active at 50 μg/mL; +++: active at 10 μg/mL; ++++: active at <5 μg/mL)”.
With “Z--Phe--Gly--Gly--LeuCH2 Cl ({code Z}-FGGL-CH2Cl; reading uncertain; also: printed as Z--Phe--Gly--Gly--LeuCH2 Cl)” the “Protease-Inhibiting Activity of Selected Peptide Halomethyl Ketones: Activity” value [4] was “+++ (key: -: no activity; +/-: low activity; +: active at 100 μg/mL; ++: active at 50 μg/mL; +++: active at 10 μg/mL; ++++: active at <5 μg/mL)”.
For “Z--Phe--Gly--Lys--LeuCH2 Cl ({code Z}-FGKL-CH2Cl; reading uncertain; also: printed as Z--Phe--Gly--Lys--LeuCH2 Cl)”, the “Comparative Experiments Involving Other Peptide Halomethyl Ketones: Activity” value [4] was “+ (key: -: no activity; +/-: low activity; +: active at 100 μg/mL; ++: active at 50 μg/mL; +++: active at 10 μg/mL; ++++: active at <5 μg/mL)”.
With “Z--Phe--Gly--Phe--LeuCH2 Cl ({code Z}-FGFL-CH2Cl; reading uncertain; also: printed as Z--Phe--Gly--Phe--LeuCH2 Cl)” the “Protease-Inhibiting Activity of Selected Peptide Halomethyl Ketones: Activity” value [4] was “++ (key: -: no activity; +/-: low activity; +: active at 100 μg/mL; ++: active at 50 μg/mL; +++: active at 10 μg/mL; ++++: active at <5 μg/mL)”.
In the case of “Z--Phe--Leu--Ala--LeuCH2 Cl ({code Z}-FLAL-CH2Cl; reading uncertain; also: printed as Z--Phe--Leu--Ala--LeuCH2 Cl)”, the “Protease-Inhibiting Activity of Selected Peptide Halomethyl Ketones: Activity” value [4] is reported as “++ (key: -: no activity; +/-: low activity; +: active at 100 μg/mL; ++: active at 50 μg/mL; +++: active at 10 μg/mL; ++++: active at <5 μg/mL)”.
With “Z--Phe--Lys--Ala--LeuCH2 Cl ({code Z}-FKAL-CH2Cl; reading uncertain; also: printed as Z--Phe--Lys--Ala--LeuCH2 Cl)” the “Comparative Experiments Involving Other Peptide Halomethyl Ketones: Activity” value [4] was “+ (key: -: no activity; +/-: low activity; +: active at 100 μg/mL; ++: active at 50 μg/mL; +++: active at 10 μg/mL; ++++: active at <5 μg/mL)”.
With “Z--Phe--Phe--Ala--LeuCH2 Cl ({code Z}-FFAL-CH2Cl; reading uncertain; also: printed as Z--Phe--Phe--Ala--LeuCH2 Cl)” the “Comparative Experiments Involving Other Peptide Halomethyl Ketones: Activity” value [4] was “+/-”.
In the case of “Z--Phe--Pro--Ala--LeuCH2 Cl ({code Z}-FPAL-CH2Cl; reading uncertain; also: printed as Z--Phe--Pro--Ala--LeuCH2 Cl)”, the “Comparative Experiments Involving Other Peptide Halomethyl Ketones: Activity” value [4] is reported as “+ (key: -: no activity; +/-: low activity; +: active at 100 μg/mL; ++: active at 50 μg/mL; +++: active at 10 μg/mL; ++++: active at <5 μg/mL)”.
For “Z-Phe-Gly-Ala-LeuCH2 Br ({code Z}-FGAL-CH2Br; reading uncertain; also: printed as Z-Phe-Gly-Ala-LeuCH2 Br) [Z--Phe--Gly--Ala--LeuCH2 Br]”, the “Protease-Inhibiting Activity of Selected Peptide Halomethyl Ketones: Activity” value [4] was “+++ (key: -: no activity; +/-: low activity; +: active at 100 μg/mL; ++: active at 50 μg/mL; +++: active at 10 μg/mL; ++++: active at <5 μg/mL)”.
With “Z-Phe-Gly-Ala-LeuCH2 Cl ({code Z}-FGAL-CH2Cl; reading uncertain; also: printed as Z-Phe-Gly-Ala-LeuCH2 Cl) [Z--Phe--Gly--Ala--LeuCH2 Cl]” the “Protease-Inhibiting Activity of Selected Peptide Halomethyl Ketones: Activity” value [4] was “+++ (key: -: no activity; +/-: low activity; +: active at 100 μg/mL; ++: active at 50 μg/mL; +++: active at 10 μg/mL; ++++: active at <5 μg/mL)”.
With “Z-Phe-Gly-Ala-LeuCH3 ({code Z}-FGAL-CH2; reading uncertain; also: printed as Z-Phe-Gly-Ala-LeuCH3)” the “activity in the viral cleavage assay” value ([4]; 50 μg/mL) was “active”, the “activity in the viral cleavage assay” value ([4]; test concentration 100 μg/mL) was “demonstrated activity” and the “activity in the viral cleavage assay” value ([5]; test concentration 100 μg/mL) was “demonstrated activity”. For the same compound, the plaque reduction ([6]; 50 μg/mL in agar overlay, compared to control plates) was > 90% and the plaque reduction [7] was > 90%.
With “Z-Phe-Gly-Ala-TyrCH2 Cl ({code Z}-FGAY-CH2Cl; reading uncertain; also: printed as Z-Phe-Gly-Ala-TyrCH2 Cl) [Z--Phe--Gly--Ala--TyrCH2 Cl]” the “Protease-Inhibiting Activity of Selected Peptide Halomethyl Ketones: Activity” value [4] was “++ (key: -: no activity; +/-: low activity; +: active at 100 μg/mL; ++: active at 50 μg/mL; +++: active at 10 μg/mL; ++++: active at <5 μg/mL)”.
In the case of “Z-Phe-Gly-Ala-ValCH2 Cl ({code Z}-FGAV-CH2Cl; reading uncertain; also: printed as Z-Phe-Gly-Ala-ValCH2 Cl) [Z--Phe--Gly--Ala--ValCH2 Cl]”, the “Protease-Inhibiting Activity of Selected Peptide Halomethyl Ketones: Activity” value [4] is reported as “++ (key: -: no activity; +/-: low activity; +: active at 100 μg/mL; ++: active at 50 μg/mL; +++: active at 10 μg/mL; ++++: active at <5 μg/mL)”.
In the case of “Z-Phe-Gly-Leu-LeuCH2 Cl ({code Z}-FGLL-CH2Cl; reading uncertain; also: printed as Z-Phe-Gly-Leu-LeuCH2 Cl) [Z--Phe--Gly--Leu--LeuCH2 Cl]”, the “Protease-Inhibiting Activity of Selected Peptide Halomethyl Ketones: Activity” value [4] is reported as “++++ (key: -: no activity; +/-: low activity; +: active at 100 μg/mL; ++: active at 50 μg/mL; +++: active at 10 μg/mL; ++++: active at <5 μg/mL)”, the “Antiviral activity, as scored by 90% plaque reduction, noted at concentration” value ([6]; HeLa cells, agar overlay) is reported as 1 µg/mL and the “concentration at which cytotoxicity was first detected” value [8] is reported as “about 15 μg/mL”.
For “Z-Phe-Gly-Leu-LeuCH3 [Z--Phe--Gly--Leu--LeuCH3]”, the “activity in the viral cleavage assay” value [4] was “demonstrated activity” and the “activity in the viral cleavage assay” value [5] was “demonstrated activity”.
With “Z-Phe-Gly-Ser-LeuCH2 Cl ({code Z}-FGSL-CH2Cl; reading uncertain; also: printed as Z-Phe-Gly-Ser-LeuCH2 Cl) [Z--Phe--Gly--Ser--LeuCH2 Cl]” the “Protease-Inhibiting Activity of Selected Peptide Halomethyl Ketones: Activity” value [4] was “++ (key: -: no activity; +/-: low activity; +: active at 100 μg/mL; ++: active at 50 μg/mL; +++: active at 10 μg/mL; ++++: active at <5 μg/mL)”.
In the case of “Z-Phe-Ser-Ala-LeuCH2 Cl ({code Z}-FSAL-CH2Cl; reading uncertain; also: printed as Z-Phe-Ser-Ala-LeuCH2 Cl) [Z--Phe--Ser--Ala--LeuCH2 Cl]”, the “Comparative Experiments Involving Other Peptide Halomethyl Ketones: Activity” value [4] is reported as “+ (key: -: no activity; +/-: low activity; +: active at 100 μg/mL; ++: active at 50 μg/mL; +++: active at 10 μg/mL; ++++: active at <5 μg/mL)”.
